The test concerns Listeria innocua 33090. Briefly: colony overlay assay of peptide-secreting E. coli clones (library screening and re-test). In kind it is cell-based. Also on record: key: higher activity group (H); equal activity group (E); lower activity group (L). As to conditions: library screening; selected colonies pooled by zone size; peptides identified by 454 sequencing, full-length sequences with minimum 20 reads. The protocol:
For the in vivo production of AMPs, we have employed an E. coli expression system that relies on periplasmic-expression of recombinant peptides in a host cell that lacks the lpo membrane protein, thus releasing the peptides present in the periplasmic space outside the cells. When the producer cells are grown into colonies on a solid substrate, it leads to accumulation of the recombinant peptides around the colony and allows for easy library screening. The screening assay used in this study was a modified version of the standard agar diffusion method as previously described. Library-transformed E. coli colonies are overlaid with a tester strain and incubated overnight to allow for peptide expression and tester strain growth. Next day, the plates are inspected for the formation of clear growth inhibition zones around E. coli colonies, which is an indication of active AMP production by the host colony.
For the construction of Pln-423 mutant library in E. coli, the expression system that consists of a periplasmic-leaky E. coli strain JE5505 and the expression plasmid pFLAG-CTS was employed for direct screening of peptide activities. It should be noted here that this plasmid contains ompA secretion signal sequence and cleavage of this sequence results in a serine residue at the N-terminal of all mature peptides. A total of 1.0×10^5 colonies, approximately 8-fold coverage of the library, were screened against Listeria innocua 33090 in five separate screening experiments. L. innocua was previously deemed as a suitable indicator for pathogenic L. monocytogenes displaying similar bacteriocin sensitivity, therefore it was used as a surrogate strain throughout this study. The selection process involved two criteria; 1) the size of the each inhibition zone was compared to that of wild-type Pln-423 as a correlation to anti-listerial activity level, 2) when several colonies formed inhibition zones that are very similar in size and character, only a few from each group were selected. The colonies were pooled into three groups based on their activities, giving 43 clones in a higher activity group (H), 81 clones in an equal activity group (E), and 241 clones in a lower activity group (L). Their plasmids were extracted from each activity group and analyzed by both Sanger and 454 high-throughput sequencing to identify peptide sequences.
These clones were also re-tested by colony overlay assay to compare their activities to wild-type Pln-423 based on the size of the inhibition zone around each clone (Figure 2-A). Based on this assay, all ten plantaricin mutants formed larger inhibition zones (10.3±0.5 to 11.4±0.3 mm zone diameter) compared to wild-type Pln-423 (6.2±0.2 mm) against L. innocua 33090. Out of those ten, three clones have a single mutation and […] clones have two mutations and the remaining single clone has three mutations. […] Positions like Ser23, Ser27, His28, and Lys36 were commonly mutated with similar amino acids indicating their potential role on higher peptide activity.
The screening method used in this study was a modified version of the standard colony overlay method as previously described. All the chemicals and growth media supplements were obtained from either Sigma-Aldrich or Fisher Scientific unless otherwise stated. Transformed E. coli JE5505 cells were diluted to 3000–5000 cfu (determined empirically prior to screening by plating serial dilutions of E. coli suspensions of a known absorbance and counting the colonies after incubation) in 25 ml LB soft agar (0.8%, 45°C) per screening plate and poured into 150 mm petri dishes. Once the media was solidified, they were overlaid with 10 ml LB soft agar (45°C) and incubated at 37°C for 24 h for host-colony formation. Next day, these plates were re-overlaid with 10 ml TSB soft agar containing 1 mM IPTG and the indicator strain Listeria innocua ATCC 33090 (diluted to OD600 = 0.03). […]
Regarding “KYYGNGVTCGKHSCSVNWGQAFSCFVSRLANFGHGKC* [Pep-2_6556]”, the “activity group by size of inhibition zone compared to wild-type Pln-423” value is reported as “L”.
Consider “KYYGNGVTCGKHSCSVNWGQAFSCGVSHLANFGHGKC* [GROUP E-UM-7]”, for which the “activity group by size of inhibition zone compared to wild-type Pln-423” value is recorded as “E”.
The entry for “KYYGNGVTCGKHSCSVNWGQAFSCGVSHLANMGHGKC* [Pep-2_9473]” is “H”.
Then “KYYGNGVTCGKHSCSVNWGQAFSCHVDHLANFGHGKC* [Pep-2_4616]”, with “E”; and “KYYGNGVTCGKHSCSVNWGQAFSCHVSHLANFGHGKC* [Pep-1_43]”, with “L”; and “KYYGNGVTCGKHSCSVNWGQAFSCHVSTLANFGHGKC* [Pep-2_4623]”, with “L”.
The entry for “KYYGNGVTCGKHSCSVNWGQAFSCIVENLANFGHGKC* [GROUP L-UM-26]” is “L”; for “KYYGNGVTCGKHSCSVNWGQAFSCLVSNLANFGHGKC* [Pep-2_6772]” it is “L”; for “KYYGNGVTCGKHSCSVNWGQAFSCMVSHLANGGHGKC* [Pep-2_9580]” it is “L”.
For the substance “KYYGNGVTCGKHSCSVNWGQAFSCNVSHLANFGHGKC* [Pep-1_45]”, the “activity group by size of inhibition zone compared to wild-type Pln-423” value was “L”.
Then “KYYGNGVTCGKHSCSVNWGQAFSCNVSHLANFGHGVC* [Pep-2_4888]”, with “L and H”.
The entry for “KYYGNGVTCGKHSCSVNWGQAFSCRVEHLANFGHGKC* [Pep-2_6013]” is “L”; for “KYYGNGVTCGKHSCSVNWGQAFSCRVSHLANFGHGKC* [GROUP L-UM-13]” it is “L”.
Then “KYYGNGVTCGKHSCSVNWGQAFSCSASHLANFGHGKC* [Pep-1_53]”, with “L”; and “KYYGNGVTCGKHSCSVNWGQAFSCSFSHLANFGHGKC* [Pep-1_52]”, with “L”.
Turning to “KYYGNGVTCGKHSCSVNWGQAFSCSIHHLANFGHGKC* [Pep-2_5914]”, the “activity group by size of inhibition zone compared to wild-type Pln-423” value is recorded as “L”.
Consider “KYYGNGVTCGKHSCSVNWGQAFSCSMSHLANFGHGKC* [GROUP L-UM-5]”, for which the “activity group by size of inhibition zone compared to wild-type Pln-423” value is given as “L”.
The entry for “KYYGNGVTCGKHSCSVNWGQAFSCSMSRLANFGHGKC* [Pep-2_6562]” is “L”.
As to “KYYGNGVTCGKHSCSVNWGQAFSCSTSHLANFGHGKC* [GROUP E-UM-4]”, the “activity group by size of inhibition zone compared to wild-type Pln-423” value is reported as “E”.
Then “KYYGNGVTCGKHSCSVNWGQAFSCSVAELANFGHGKC* [Pep-2_6350]”, with “H”.
The entry for “KYYGNGVTCGKHSCSVNWGQAFSCSVAHFANLGHGKC* [GROUP L-UM-30]” is “L”.
On to “KYYGNGVTCGKHSCSVNWGQAFSCSVAHLANFGHGKC* [Pep-1_59]”, for which the “activity group by size of inhibition zone compared to wild-type Pln-423” value is recorded as “L”.
Then “KYYGNGVTCGKHSCSVNWGQAFSCSVCHMANFGHGKC* [Pep-2_7542]”, with “L”; and “KYYGNGVTCGKHSCSVNWGQAFSCSVDHLANFGHGHC* [Pep-2_11750]”, with “H”; and “KYYGNGVTCGKHSCSVNWGQAFSCSVDHLANFGHGKC* [GROUP H-UM-2]”, with “H”.
Consider “KYYGNGVTCGKHSCSVNWGQAFSCSVEHLANFGHAKC* [Pep-2_6071]”, for which the “activity group by size of inhibition zone compared to wild-type Pln-423” value is recorded as “E”.
As to “KYYGNGVTCGKHSCSVNWGQAFSCSVEHLANFGHGGC* [Pep-2_6077]”, the “activity group by size of inhibition zone compared to wild-type Pln-423” value is “E and H”.
The entry for “KYYGNGVTCGKHSCSVNWGQAFSCSVEHLANFGHGHC* [Pep-2_6073]” is “E”; for “KYYGNGVTCGKHSCSVNWGQAFSCSVEHLANFGHGKC* [Pep-1_56]” it is “E and H”; for “KYYGNGVTCGKHSCSVNWGQAFSCSVEHLANFGHIKC* [Pep-2_6070]” it is “L”.
The entry for “KYYGNGVTCGKHSCSVNWGQAFSCSVEHLANFGHNKC* [Pep-2_11318]” is “H”; for “KYYGNGVTCGKHSCSVNWGQAFSCSVEHLANFGYGKC* [Pep-2_6063]” it is “E”; for “KYYGNGVTCGKHSCSVNWGQAFSCSVFHLANFGHGLC* [Pep-2_12076]” it is “L”.
The entry for “KYYGNGVTCGKHSCSVNWGQAFSCSVGVLANFGHMHC* [GROUP L-UM-19]” is “L”; for “KYYGNGVTCGKHSCSVNWGQAFSCSVHHLANFGHGKC* [Pep-1_55]” it is “L”; for “KYYGNGVTCGKHSCSVNWGQAFSCSVHHLANYGHGKC* [Pep-2_5943]” it is “L”.
Take “KYYGNGVTCGKHSCSVNWGQAFSCSVHRLANFGHGKC* [Pep-2_5917]”: the “activity group by size of inhibition zone compared to wild-type Pln-423” value was “L”.
The entry for “KYYGNGVTCGKHSCSVNWGQAFSCSVIALANFGHGKC* [Pep-2_7000]” is “L”.
The entry for “KYYGNGVTCGKHSCSVNWGQAFSCSVIHLANFGHGSC* [Pep-2_11968]” is “H”.
The entry for “KYYGNGVTCGKHSCSVNWGQAFSCSVLHLANFGHGKC* [GROUP L-UM-20]” is “L”.
In the case of “KYYGNGVTCGKHSCSVNWGQAFSCSVMHLANFGHGKC* [GROUP L-UM-16]”, the “activity group by size of inhibition zone compared to wild-type Pln-423” value is on record as “L”.
Then “KYYGNGVTCGKHSCSVNWGQAFSCSVNVLANFGHGKC* [Pep-2_6891]”, with “L”; and “KYYGNGVTCGKHSCSVNWGQAFSCSVRHLANFGHGEC* [Pep-2_11857]”, with “L”; and “KYYGNGVTCGKHSCSVNWGQAFSCSVSALANFGHGRC* [Pep-2_7045]”, with “L”.
Then “KYYGNGVTCGKHSCSVNWGQAFSCSVSDLANFGHGKC* [Pep-1_62]”, with “L”; and “KYYGNGVTCGKHSCSVNWGQAFSCSVSHFANFGHGKC* [GROUP E-UM-8]”, with “E”.
Then “KYYGNGVTCGKHSCSVNWGQAFSCSVSHLA*FGHGKC* [GROUP L-UM-33]”, with “L”; and “KYYGNGVTCGKHSCSVNWGQAFSCSVSHLAAFGHGSC* [Pep-2_11993]”, with “H”.
On to “KYYGNGVTCGKHSCSVNWGQAFSCSVSHLAEFGHGKC* [Pep-1_80]”, for which the “activity group by size of inhibition zone compared to wild-type Pln-423” value is on record as “L”.
The entry for “KYYGNGVTCGKHSCSVNWGQAFSCSVSHLAKFGHGKC* [Pep-1_81]” is “L”; for “KYYGNGVTCGKHSCSVNWGQAFSCSVSHLANFGEGKC* [Pep-1_98]” it is “H”; for “KYYGNGVTCGKHSCSVNWGQAFSCSVSHLANFGFGWC* [Pep-2_12334]” it is “L”.
Then “KYYGNGVTCGKHSCSVNWGQAFSCSVSHLANFGHAKC* [Pep-1_107]”, with “L”; and “KYYGNGVTCGKHSCSVNWGQAFSCSVSHLANFGHDKC* [GROUP E-UM-9]”, with “E”.
The entry for “KYYGNGVTCGKHSCSVNWGQAFSCSVSHLANFGHGCC* [GROUP L-UM-31]” is “L”.

Values taken from publication PMC3602187, “From Design to Screening: A New Antimicrobial Peptide Discovery Pipeline” (PLoS ONE, 2013).
